Converted amounts (≈) assume the structure as drawn.
Experiments:
[1] = system: H9, cutaneous T lymphocyte cell line; experiment: Cytotoxicity assay (PrestoBlue), H9; details: CC50, 72 h
Procedure: (§1) We finally tested the cytotoxicity of the compounds against four eukaryotic cell lines (Table 2 and Table S5), NRK-52E, an epithelial kidney cell line of Rattus norvegicus; Hep G2, an human epithelial liver cell line; and two suspension cell lines: CCRF-CEM, a T lymphoblast; and H9, a cutaneous T lymphocyte cell line.
(§2) Cell lines stored at −120 °C were thawed to 37 °C and resuspended in 10 mL of medium pre-warmed to 37 °C. Cells were pelleted at 300× g for 10 min, and then resuspended in fresh medium, seeded in a T-75 culture flask, and placed in a CO2 incubator (37 °C with 5% CO2 tension). Once the cells reached approximately 70–80% confluency, they were then passaged regularly. The adherent cell lines NRK52E, HepG2 and Huh 7 were washed once with 10 mL DPBS and detached with Trypsin-EDTA for 5 to 7 min and resuspended in 15 mL of the appropriate medium. The suspension cell line CCRF-CEM were diluted and resuspended in fresh RPMI 1640 PAN medium. To calculate the cell density, the cell resuspensions were diluted 1:6 with DPBS. Equal volumes of cell suspension and Trypan Blue were mixed and gently loaded into a haemocytometer (INCYTO, 31056 Republic of Korea). In each experiment, cell concentrations were adjusted to reach a concentration of 2.5 × 10^3 cell/well for NRK52E, 5 × 10^3 cell/well for HepG2, 6.2 × 10^4 cell/well for CCRF-CEM and 3 × 10^3 for H9. The cells were incubated with decreasing concentration of compounds (1 µL in 96% DMSO) for 72 h at 37 °C with 5% CO2 tension. Cycloheximide, a cytotoxic compound that interferes with the translocation step in eukaryotic protein synthesis was used as a control for the experiments. The assay was carried out in flat-bottom, transparent 96-well plates. Cell viability was determined using the PrestoBlue reagent (Thermo Fisher Scientific, Waltham, MA, USA) according to the manufacture’s protocol. First, 10× PrestoBlue was added to each well to obtain a 1× solution, and incubated at 37 °C for 45 min. Then, fluorescence was measured at Ex/Em: 550/595 nm using a ClarioStar microplate reader (BMG Labtech). Cytotoxicity was determined as the percentage of the difference in absorbance of the untreated sample to the treated sample. CC50 was calculated using the values obtained in each concentration using the sigmoidal dose-response by Prism v.8. The media used in each cell line is detailed in Table S6.

[2] = system: NRK-52E, epithelial kidney cell line; experiment: Cytotoxicity assay (PrestoBlue), NRK52E; details: CC50, 72 h
Procedure: as §1, §2

[3] = target: T1, PBP3 of P. aeruginosa (PaPBP3) (Pseudomonas aeruginosa, UniProt G3XD46); experiment: S2dfluo fluorescence transpeptidase assay; format: biochemical; details: 300 nM PaPBP3, 30 min preincubation, 37 °C; for IC50: read-out: IC50 Determination with PaPBP3, S2dfluo Assay
T1 construct: P. aeruginosa PBP3 (amino acids 40 to 563); His-tag; made in house; host or cells: E. coli BL21 (DE3) Rosetta, plasmid pET41_PBP-3
T1 sequence (G3XD46 40-563): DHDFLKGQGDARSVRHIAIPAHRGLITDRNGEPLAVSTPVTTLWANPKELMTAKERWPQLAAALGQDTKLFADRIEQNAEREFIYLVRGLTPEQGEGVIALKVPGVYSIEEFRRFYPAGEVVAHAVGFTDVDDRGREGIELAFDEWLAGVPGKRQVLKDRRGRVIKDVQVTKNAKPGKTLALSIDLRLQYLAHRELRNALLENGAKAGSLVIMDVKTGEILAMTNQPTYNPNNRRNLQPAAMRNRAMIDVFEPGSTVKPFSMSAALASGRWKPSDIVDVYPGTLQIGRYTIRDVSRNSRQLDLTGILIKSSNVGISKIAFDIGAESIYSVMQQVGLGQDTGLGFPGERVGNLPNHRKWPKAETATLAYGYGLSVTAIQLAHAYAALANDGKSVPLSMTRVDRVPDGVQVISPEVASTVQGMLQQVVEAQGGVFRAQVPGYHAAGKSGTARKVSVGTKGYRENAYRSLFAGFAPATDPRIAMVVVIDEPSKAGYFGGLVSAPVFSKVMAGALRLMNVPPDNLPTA
Procedure: The assays were carried out in the presence of 5% DMSO and 0.01% Triton X100 to avoid the formation of colloidal structures and adsorption of protein and/or compounds to surfaces. The Z’-factor determined for the assay was 0.73 ± 0.28, indicating the suitability and robustness of the assay for high throughput screening (HTS) (Figure 1B,C).
The activity of soluble ^PaPBP3 (300 nM) was measured in the presence of 0.8 mM S2d, 1 mM D-alanine and 0.5 mM mBBr for 25 min by monitoring the increase in the fluorescence intensity of mBBr at Ex/Em: 394/490 nm using an Infinite M1000 microplate reader (Tecan, Männedorf, Switzerland). To test the effect of inhibitors, 100 µM or 0.8 to 100 µM of compounds diluted in 96% DMSO were incubated for 30 min and 450 rpm with 300 nM soluble PBP3. The incubation period was set to improve the binding of non-covalent inhibitors and 0.01% Triton X100 (Sigma-Aldrich, Taufkirchen, Germany) was added to prevent aggregation of compounds. The enzyme reaction was started by adding a substrate mix of 0.8 mM S2d and […]. The enzyme, compound and substrate mix were mixed 1:1, pipetted with a Liquidator 96 (Melter Toledo, Gießen, Germany) and the fluorescence intensity was directly monitored with an Infinite M1000 microplate reader (Tecan) at Ex/Em: 394/490 nm. The assay was performed in black, flat-bottom 96-well microplates (Greiner Bio-One, Kremsmünster, Austria) at 37 °C in Sorensen Phosphate Buffer (57 mM Na2HPO4 and 10 mM KH2PO4, pH 7.5 + 0.01% Triton X-100). The velocity of the PBP3 reaction was calculated in the presence of each concentration of compound and the velocity values were used to estimate IC50 by sigmoidal nonlinear regression, using Prism v.9 software (San Diego, CA, USA) and the velocity of the reaction at each concentration.

[4] = system: T-lymphoblast CCRF-CEM cell line; experiment: Cytotoxicity assay (PrestoBlue), CCRF-CEM; details: CC50, 72 h
Procedure: as §1, §2

[5] = system: Hep G2, epithelial liver cell line; experiment: Cytotoxicity assay (PrestoBlue), HepG2; details: CC50, 72 h
Procedure: as §1, §2

S. pneumoniae = experiment: MIC broth microdilution, S. pneumoniae; format: cell-based; details: Streptococcus pneumoniae; Table S3; read-out: MIC (µM) S. pneumoniae
How it was run: (§3)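 CLSI broth microdilution in cation-adjusted Mueller Hinton broth, 5 × 10^4 bacteria per well with 1:2 serial compound dilutions, PMBN added where applicable. MIC read visually after 18 h at 37 °C. Confirmation by 10% PrestoBlue, fluorescence at Ex/Em 550/595 nm after 30 min.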

S. aureus 133 = experiment: MIC broth microdilution, S. aureus; format: cell-based; details: Staphylococcus aureus, 133; Table S3
How it was run: as §3

[6] = system: K. pneumoniae clinical isolate; experiment: MIC broth microdilution, K. pneumoniae; format: cell-based; details: Klebsiella pneumoniae; Table S3
How it was run: as §3

Row | Structure (SMILES) | Cytotoxicity effect (µM) T-lymphocyte H9 [1] | Cytotoxicity effect (µM) Epithelial kidney NRK52E [2] | IC50 Determination with PaPBP3, S2dfluo Assay [3] | IC50 [3] | Cytotoxicity CCRF-CEM [4] | Cytotoxicity effect (µM) Epithelial liver HepG2 [5] | MIC (S. pneumoniae) | MIC (S. aureus 133) | MIC [6]
1 | O=C(C1=C(O)C(=O)N(Cc2nc3ccccc3[nH]2)C1c1ccc(Cl)cc1)c1ccc(Br)cc1 (centres unmarked) [Compound 38] | > 100 µM | > 100 µM | drastic loss of the inhibitory activity | 100 ± 11 µM | >100 µM | > 100 µM | 25 µM (≈ 13.1 µg/mL) | > 100 µM | > 100 µM
2 | O=C(C1=C(O)C(=O)N(Cc2cc3cc(Cl)ccc3[nH]2)C1c1ccc(Cl)cc1)c1ccc(Br)cc1 (centres unmarked) [Compound 35] | 96 ± 7 µM | 53 ± 5 µM |  | 3 ± 1 µM | > 100 µM | > 100 µM | 6.25 µM (≈ 3.48 µg/mL) | 3.13 µM (≈ 1.74 µg/mL) | > 100 µM

— article PMC8147781, “Discovery of Pyrrolidine-2,3-diones as Novel Inhibitors of P. aeruginosa PBP3” (Antibiotics, 2021)
